{"source": "patent US20180353461A1", "about": "“USE OF CANNABINOIDS AS CERAMIDE-GENERATING ANTICANCER AGENTS IN TUMORS OF THE HEMATOPOIETIC AND LYMPHOID TISSUES” (priority 2014, published 2018)", "key": {"U266 cells [1]": {"test_system": "U266 cells", "assay": "SPT expression, ceramide staining and SPT inhibition in U266 cells", "assay_type": "cell-based, human", "procedure": "Except if otherwise indicated, for the viability assays primary cells were incubated 18 hours, with vehicle (with <0.15% DMSO) or cannabinoid. Meanwhile, the time course assays cells were performed at 0, 2, 6, 18 and 24 h. For the analysis of SPT activity, cells were co-incubated for the first 6 hours with the SPT inhibitor, myriocin, and the cannabinoid, WIN-55 or JWH-133.\nSamples (15-25 ug/lane) were subjected to SDS/PAGE in pre-cast polyacrylamide gels AnykD (Bio-Rad Laboratories, Hercules, CA, USA) under reducing and denaturing conditions. Electrophoretic run was performed at a constant current of 15 mA per gel in a Mini-Protean® Tetra Cell (Bio-Rad Laboratories). Once proteins were separated by electrophoresis, were transferred onto PVDF membranes using Trans-Blot® Turbo™ System (Bio-Rad Laboratories). Electrotransference was conducted at constant amperage of 1.2 mA and at up to 25 V of voltage. The blotted membranes were then blocked with 2% bovine serum albumin [(BSA), Santa Cruz Biotechnology] in Tween-Tris buffer saline (TTBS) for 30 min with gentle agitation, and incubated overnight at 4° C. with corresponding primary antibody in TTBS. After twice washing with TTBS, membranes were incubated for 1-2 h at room temperature with suitable conjugated-HRP secondary antibody, and subjected to chemiluminescence detection using Western Blotting Luminol Reagent (Santa Cruz Biotechnology). Loading controls were carried out with an anti-beta-actin and anti-beta-tubulin antibodies (Sigma-Aldrich). Blots were captured using a digital imaging system ImageQuant LAS 4000 (Amersham GE Healthcare) and transferred to a digital image processing software to analyze (Adobe Photoshop CS2, version 9.0., Adobe Systems Inc., San Jose, Calif.).\nAfter cannabinoids and/or antagonists or SPT inhibitor treatment, primary cells and cell lines were washed with PBS, collected and placed on slides (Menzel-Glaser, Thermo Fisher Scientific). Cells were fixed in cold 4% paraformaldehyde for 10 min, treated with sodium borohydride and, permeabilized in 0.02% Triton X-100 in PBS with 10% normal donkey serum for blocking. Then, cells were incubated with the anti-CB1 or anti-CB2 receptor antibodies, anti-active-caspase3, anti-ceramide in blocking buffer overnight at 4° C. in a humid chamber (Simport, Beloeil, QC, Canada). After washing with PBS, samples were further incubated for 90 min with Alexa 647- or Alexa 488—conjugated donkey secondary antibody. After twice washing, first with PBS and then with 50 mM Tris-HCl (pH 7.4), and were dipped in a solution of Sudan Black B (Sigma-Aldrich) in 70% methanol for 5 min. After immunocytochemistry, slides were mounted using Fluoromount Aqueous Mounting Medium (Sigma-Aldrich). Preparations were examined with an Olympus BX-61 microscope (Olympus, Hamburg, Germany) equipped with appropriate filters: FITC/Cy2 (green fluorophores) 460-490 nm bandpass excitation filter and 510-550 nm bandpass emission filter; rhodamine/Cy3 (red fluorophores) 541-551 nm excitation and 572-607 nm emission; and Cy5 (deep red fluorophore) 615-635 nm excitation and 655 nm longpass emission. Digital images were acquired with CellSens Dimension Software (Olympus) and contrasted with Photoshop CS2 Software (Adobe Systems Inc). […]\nDe novo synthesis of ceramides contribute to the apoptotic process triggered by cannabinoids. […] To this end, we analyzed the expression of serine palmitoyltransferase (SPT), the enzyme that catalyses the rate-limiting step of ceramide synthesis de novo. […]"}, "U266 cells [2]": {"test_system": "U266 cells", "assay": "MM xenograft (U266 cells, subcutaneous) in NSG mice", "assay_type": "in vivo", "conditions": "5 mg/kg WIN-55,212-2 intraperitoneally every 24 h or 48 h", "procedure": "NOD/scid/IL-2R gammae null (NSG) mice were purchased from Charles River Laboratories International (L'Arbresle, France) and maintained with food and water ad libitum, under specific pathogen-free conditions. When mice were 8-9 weeks old, human tumor xenografts were induced by subcutaneous inoculation in suprascapular area of MM cell line U266 cells. To establish tumor, 5×10e6 cells were resuspended in 100 ul RPMI medium without serum and 100 ul of Matrigel (BD Biosciences). To easy visualization the hair was trimmed from the site of inoculation. Closely second week following implantation, when tumors became palpable (>0.5 cm), mice were randomly assigned to the following groups (10 mice per group): group 1 received intraperitoneally 5 mg/kg WIN-55,212-2 every 24 h, group 2 received the treatment every 48 hl and group 3 received vehicle. […] Tumor growth was assessed three times each week following tumor implantation. Two bisecting diameters of each tumor were measured with calipers, and the volume was calculated using the formula length x (width) e2×0.4 mm3. […]\nThe administration with cannabinoids inhibits remarkably the growth of tumor in vivo. Finally, we analyzed the anti-tumor effect of the cannabinoids in vivo, using a model of human MM xenografted in immunodeficient mice NOD/SCID. […]"}, "HL60 cells [3]": {"test_system": "HL60 cells", "assay": "Mitochondrial membrane potential in HL60 cells (TMRE, flow cytometry)", "assay_type": "cell-based, human", "procedure": "(§1) Mitochondrial membrane potential and superoxide detection Cells (10e6 cells per assay) were treated with a concentration of WIN-55 for 15, 30, 45 and 60 min at 37° C. Fluorochromes 10 μM TMRM [(tetramethylrhodamine-ethyl-ester-perchlorate), Santa Cruz Biotechnology Inc.] to detect membrane potential, or 5 μM MitoSOX [Molecular Probes (Invitrogen)] to detect mitochondrial superoxide, were added for the last 15 min of treatment. CCCP (uncoupler of oxidative phosphorylation) or H2O2 (oxidant agent) was used as a positive control of the techniques respectively (Labbe et al., 2008). The fluorescence detection of TMRM was measured for flow citometry. Fluorescent intensity was quantified and analyzed using Infinicyt™ Software (Cytognos, Salamanca, Spain).\n(§2) To delve into the processes that participate in cannabinoid-induced apoptosis, we evaluated the potential of mitochondrial membrane potential in HL60 cells after treatment with WIN-55, at indicated times, using TMRE assay by flow citometry. We observed that cannabinoids induced a drop of Δψm in HL60 cells (FIG. 20a). The loss of potential started as early as 15 min after exposure to the cannabinoid, and continued decreasing over time. Also the ROS increase by MitoSOX assay was observed, specially in HL60 cells after exposure to WIN-55 (FIG. 20b)."}, "HL60 cells [4]": {"test_system": "HL60 cells", "assay": "Mitochondrial superoxide / ROS in HL60 cells (MitoSOX assay)", "assay_type": "cell-based, human", "procedure": "as §1\nThe MitoSOX signal was detected using a ‘Fluoroscan’ multi-well plate reader (Thermo Labsystems, Thermo Scientific), excitation/emission maxima of 543/593 nm.\nas §2, with “Also the ROS increase by MitoSOX assay was observed, specially in HL60 cells after exposure to WIN-55 (FIG. 20b).” left out"}}, "data": [{"smiles": "CS(=O)(=O)O.Cc1c(C(=O)c2cccc3ccccc23)c2cccc3c2n1[C@H](CN1CCOCC1)CO3", "note": "[WIN-55, (R)-(+)-[2,3-dihydro-5-methyl-3-(4-morpholinylmethyl)-pyrrolo-[1,2,3]-1,4-benzoxazin-6-yl]-1-naphthalenylmethanone mesylate]", "values": [{"measurement": "SPT, 2 h after exposure", "setting": "U266 cells [1]; U266", "result": "moderate increase"}, {"measurement": "time at which SPT reached the maximal level", "setting": "U266 cells [1]; U266", "result": 18, "unit": "h"}, {"measurement": "ceramide by immunohistochemistry, compared to untreated cells", "setting": "U266 cells [1]; U266, 50 uM, 18 hours", "result": "remarkable increase"}, {"measurement": "SPT expression level in myelomatous cells", "setting": "U266 cells [1]; U266, WIN-55 50 uM", "result": "enhanced"}, {"measurement": "tumor volume / tumor growth compared to vehicle-treated counterparts", "setting": "U266 cells [2]", "result": "inhibit tumor growth"}, {"measurement": "time after exposure at which the loss of potential started", "setting": "HL60 cells [3]; HL60", "result": 15, "unit": "min"}, {"measurement": "mitochondrial membrane potential (Δψm)", "setting": "HL60 cells [3]; HL60, TMRE, flow cytometry", "result": "drop of Δψm"}, {"measurement": "ROS by MitoSOX assay", "setting": "HL60 cells [4]", "result": "increase"}]}]}
